Reference: US11879137B2, “Treatment of type 1 diabetes and autoimmune diseases or disorders” (THE CHILDREN'S MEDICAL CENTER CORPORATION, priority 2017, dated 2024)
Read-outs that look alike come from different tables or passages of the source.

Assays:
[1] = test system: PD-L1 in MDA-MB-231 cells; assay: PD-L1 protein by western blot in transfected MDA-MB-231 cells; format: cell-based, human; conditions: vs corresponding negative control; 48 h
Procedure: MDA-MB-231 breast cancer cells were cultured in DMEM high glucose medium (Gibco, Thermo Fisher Scientific; Waltham, MA USA) supplemented with 10% heat-inactivated fetal calf serum (Gibco, Thermo Fisher Scientific), 100 units/ml penicillin, 100 μg/ml streptomycin, and 2 mM L-glutamine. 2×10^5 cells were seeded in each well of a 6-well plate and transfected with 10 pmol of the miRNA mimic or miRNA mimic negative control, or 100 pmol of the anti-miR or anti-miR negative control (all from Exiqon, Qiagen) using the Lipofectamine RNAiMAX transfection reagent (Invitrogen, Thermo Fisher Scientific) in a final culture medium volume of 2 ml, following manufacturer's instructions. […] Forty-eight hours after transfection, cells were collected from each well for RNA extraction, cell lysate preparation and FACS analysis. RNA was extracted using Direct-zol RNA miniprep plus (Zymo research, Irvine, CA, USA) and RNA quality was checked and then retro-transcribed using RETROscript® Kit (Fisher Scientific) following manufacturer's instructions. […]
Protein concentration in MDA-MB-231 cell lysates was measured. […] Finally, for the quantification of western blot, images of PVDF membranes were analyzed by ImageJ software to quantify size and strength of protein bands. […]

[2] = test system: NEU1, MTOR, MYC, IGF1R, VEGFA, RB1 in MDA-MB-231 cells; assay: mRNA of validated miRNA target genes (transfection control) in MDA-MB-231 cells; format: cell-based, human; conditions: VEGFA or RB1 as named for each agent, 48 h after transfection
Procedure: MDA-MB-231 breast cancer cells were cultured in DMEM high glucose medium (Gibco, Thermo Fisher Scientific; Waltham, MA USA) supplemented with 10% heat-inactivated fetal calf serum (Gibco, Thermo Fisher Scientific), 100 units/ml penicillin, 100 μg/ml streptomycin, and 2 mM L-glutamine. 2×10^5 cells were seeded in each well of a 6-well plate and transfected with 10 pmol of the miRNA mimic or miRNA mimic negative control, or 100 pmol of the anti-miR or anti-miR negative control (all from Exiqon, Qiagen) using the Lipofectamine RNAiMAX transfection reagent (Invitrogen, Thermo Fisher Scientific) in a final culture medium volume of 2 ml, following manufacturer's instructions. […] Forty-eight hours after transfection, cells were collected from each well for RNA extraction, cell lysate preparation and FACS analysis. RNA was extracted using Direct-zol RNA miniprep plus (Zymo research, Irvine, CA, USA) and RNA quality was checked and then retro-transcribed using RETROscript® Kit (Fisher Scientific) following manufacturer's instructions. Cell lysates were obtained in RIPA buffer (50 mmol/1 Tris-HCl, pH 8.0, 1% Triton-x, 0.5% sodium deoxycholate, 0.1% SDS, 150 mmol/1 sodium chloride) with protease inhibitor cocktail (Roche).
qRT-PCR for PD-L1 analysis was performed on retro-transcribed cDNA using SYBR® Green dye (Life Technologies, Thermo Fisher Scientific). Amplification was performed on a QuantStudio S6 Real Time PCR system (Thermo Fisher Scientific). To confirm a successful transfection, the mRNA level of genes known to be controlled by the targeted miRNAs were evaluated by SYBR® Green dye (Life Technologies, Thermo Fisher Scientific) according to the manufacturer's instructions. Normalized expression values were determined using the ΔΔCt method in treated as compared to negative treated samples, using GAPDH mRNA as endogenous reference. The miRNA-targeted genes tested, along with forward and reverse primer sequences used for their amplification, are listed in Table 13.
To determine if targeting the miRNA network decreases PD-L1 expression in human cancer setting, PD-L1-expressing MDA-MB-231 human breast cancer cells were transfected with a set of miRNA mimics or anti-miRs to either increase or decrease the function of a set of miRNAs not previously known to affect PD-L1 (miR-125b, miR-99a, miR-744, mir-599, miR-511, miR-206, miR-26b). The effect of treatment with miRNA mimics and anti-miRs on the percentage of PD-L1-expressing cells, as well as on PD-L1 mRNA and protein levels, was investigated. miRNA mimic/anti-miR treated-cells were compared to corresponding mimic/anti-miR negative control-treated cells by flow cytometric analysis, Real Time PCR and western blot to assess percentage of PD-L1-expressing cells, PD-L1 mRNA, and PD-L1 protein levels, respectively. A successful miRNA mimic/anti-miR transfection was confirmed by the detection of changed mRNA levels of the validated miRNA targets NEU1 (for miR-125b mimic), MTOR (for miR-99a mimic), MYC (for miR-744 mimic and miR-599 anti-miR), IGF1R (for miR-511 mimic), VEGFA (for miR-206 anti-miR) and RB1 (for miR-26b anti-miR) in treated cells (FIG. 22A). […] Lysates of miR-511 mimic and miR-206 anti-miR treated cells were not available for western blot analysis.

peripheral CD34+ cells = conditions: after mobilization
Procedure: Data are expressed as mean±standard error of the mean (SEM). Data are representative of at least two independent experiments. *P<0.05; **P<0.01; ***P<0.001. #P<0.05 vs. all
The effect of overcoming PD-L1 deficiency in human HSPCs was tested by using the same agents described herein above (e.g., tested in NOD mice). […] To study the ex vivo immunoregulatory functions of pCD34+, CD34-depleted PBMCs were co-cultured with unmodulated CD34+ or pCD34+ in the presence of insulin-associated autoantigen-2 (I-A2), and the number of IFN-γ-producing cells was quantified in an ELISPOT assay. […] Finally, the effect of plerixafor-mediated mobilization, used in clinic (5, 9), was analyzed on PD-L1 expression in CD34+ cells obtained from 5 T1D patients and 8 healthy controls (Table 10).

Row | Compound | PD-L1 protein levels [1] | mRNA levels of the validated miRNA target [2] | percentage of CD34+PD-L1+ cells (peripheral CD34+ cells; T1D patients) | percentage and absolute number of CD34+ cells (peripheral CD34+ cells; 5 T1D patients and 8 healthy controls) | percentage of CD34+PD-L1+ cells (peripheral CD34+ cells; healthy controls)
1 | miR-599 anti-miR: Anti-miR, GUUUGAUAAACUGACACAAC, SEQ ID NO: 6 (listed as RNA, chemistry not given here) | increase | changed |  |  | 
2 | c1cc(CN2CCCNCCNCCCNCC2)ccc1CN1CCCNCCNCCCNCC1 [plerixafor] |  |  | remained stable | significantly increased | decreased
